Test results taken from ChEMBL document CHEMBL4177741, “NOTA analogue: A first dithiocarbamate inhibitor of metallo-β-lactamases” (Bioorg Med Chem Lett, 2018).
In brackets after ≈: the same amount, converted by molar mass. Activity calls are given as the source filed them. The calls are words filed in the database; no cut-off is given here.

Tests used:
HeLa [1] = assay: Cytotoxicity in human HeLa cells assessed as inhibition of cell growth at 64 ug/ml incubated for 24 hrs by calcein AM and propidium iodide staining based fluorescence microscopy
HeLa [2] = assay: Cytotoxicity in human HeLa cells assessed as inhibition of cell growth at 128 ug/ml incubated for 24 hrs by calcein AM and propidium iodide staining based fluorescence microscopy
Proteus mirabilis [3] = conditions: 64 ug/ml
Description: (§2) Inhibition of NDM1 in Proteus mirabilis clinical isolates assessed as potentiation of meropenem-induced antibacterial activity by measuring meropenem MIC at 64 ug/ml incubated for 16 to 18 hrs by broth microdilution method

Escherichia coli [4] = assay: Potentiation of meropenem-induced antibacterial activity in Escherichia coli expressing NDM1 assessed as meropenem inhibition zone incubated for 16 to 18 hrs by CLSI protocol based disc diffusion method (reference value: 10.76 mm); format: functional
Proteus mirabilis [5] = assay: (§1) Inhibition of NDM1 in Proteus mirabilis clinical isolates assessed as potentiation of meropenem-induced antibacterial activity by measuring meropenem MIC at 32 ug/ml incubated for 16 to 18 hrs by broth microdilution method
Proteus mirabilis [6] = conditions: 64 ug/ml; remark: listed apart in the source
Description: as §2

Escherichia coli [7] = assay: Effect on cell growth of Escherichia coli expressing NDM1 incubated for 16 to 18 hrs by CLSI protocol based method; format: organism-based
Escherichia coli [8] = assay: Effect on cell growth of Escherichia coli expressing NDM1 assessed as cell growth level; format: organism-based
[9] = Cytotoxicity in human HeLa cells assessed as inhibition of cell growth at 1000 ug/ml incubated for 24 hrs by CCK8 assay; format: cell-based; conditions: read-out: GI
Proteus mirabilis [10] = assay: as §1; remark: listed apart in the source
Erythrocyte = assay: Hemolytic activity in sheep RBCs at 10000 ug/ml incubated for 1 hr; format: ADME, cell-based, Ovis aries
Citrobacter freundii [11] = assay: Inhibition of NDM1 in Citrobacter freundii clinical isolates assessed as potentiation of meropenem-induced antibacterial activity by measuring meropenem MIC at 32 ug/ml incubated for 16 to 18 hrs by broth microdilution method
Citrobacter freundii [12] = conditions: 64 ug/ml
Description: Inhibition of NDM1 in Citrobacter freundii clinical isolates assessed as potentiation of meropenem-induced antibacterial activity by measuring meropenem MIC at 64 ug/ml incubated for 16 to 18 hrs by broth microdilution method

HeLa [13] = assay: Cytotoxicity in human HeLa cells assessed as inhibition of cell growth at 0.1% incubated for 24 hrs by calcein AM and propidium iodide staining based fluorescence microscopy; format: functional
[14] = target: Beta-lactamase NDM-1 (Escherichia coli) (UniProt E5KIY2)
Beta-lactamase NDM-1 [15] = target: T1, Beta-lactamase NDM-1 (Escherichia coli, UniProt E5KIY2)
Description: Inhibition of NDM1 in Escherichia coli BL21 (DE3) using MEPM substrate incubated for 15 mins by UV spectroscopy

Beta-lactamase NDM-1 [16] = target: T1, Beta-lactamase NDM-1; remark: listed apart in the source
Description: Non-competitive inhibition of NDM1 in Escherichia coli BL21 (DE3) using MEPM substrate incubated for 15 mins by UV spectroscopy based L-B plot

Proteus mirabilis [17] = assay: as §1; remark: listed apart in the source
[18] = target: Beta-lactamase NDM-1 (Escherichia coli) (UniProt E5KIY2); remark: listed apart in the source
Description: Inhibition of NDM1 in Escherichia coli clinical isolates assessed as potentiation of meropenem-induced antibacterial activity by measuring meropenem MIC at 32 ug/ml incubated for 16 to 18 hrs by broth microdilution method (Rvb = 320 ug/ml)

[19] = target: Metallo-beta-lactamase type 2 (Klebsiella pneumoniae) (UniProt C7C422)
[20] = target: Beta-lactamase NDM-1 (Escherichia coli) (UniProt E5KIY2); remark: listed apart in the source
Description: Inhibition of NDM1 in Escherichia coli clinical isolates assessed as potentiation of meropenem-induced antibacterial activity by measuring meropenem MIC at 32 ug/ml incubated for 16 to 18 hrs by broth microdilution method (Rvb = 80 ug/ml)

[21] = target: Beta-lactamase NDM-1 (Escherichia coli) (UniProt E5KIY2); assay: Inhibition of NDM1 in Escherichia coli assessed as potentiation of 0.125 ug/ml meropenem-induced antibacterial activity by measuring bacterial count at 32 ug/ml incubated for 3 hrs by time-dependent killing assay (reference value: […])
[22] = target: Metallo-beta-lactamase type 2 (Klebsiella pneumoniae) (UniProt C7C422); remark: listed apart in the source
Description: Inhibition of NDM1 in Klebsiella pneumoniae clinical isolates assessed as potentiation of meropenem-induced antibacterial activity by measuring meropenem MIC at 32 ug/ml incubated for 16 to 18 hrs by broth microdilution method (Rvb = 80 ug/ml)

[23] = target: Beta-lactamase NDM-1 (Escherichia coli) (UniProt E5KIY2); remark: listed apart in the source
Description: Inhibition of NDM1 in Escherichia coli assessed as potentiation of meropenem-induced antibacterial activity by measuring meropenem inhibition zone at 0.1mol/L incubated for 16 to 18 hrs by CLSI protocol based disc diffusion method

Question: With `S=C([S-])N1CCN(C(=S)[S-])CCN(C(=S)[S-])CC1.[Na+].[Na+].[Na+]` as the compound, how does the Activity (HeLa [1]) read?
Answer: Non-Toxic

Question: What about the Activity (HeLa [2]) of the same compound?
Answer: Non-Toxic

Question: And the MIC (Proteus mirabilis [3])?
Answer: > 16 µg/mL

Question: What about the “inhibition zone (IZ)” value (Escherichia coli [4]) of the same compound?
Answer: 15.9 mm

Question: And the MIC (Proteus mirabilis [5])?
Answer: 4 µg/mL

Question: And the MIC (Proteus mirabilis [6])?
Answer: 4 µg/mL

Question: What about the MIC (Escherichia coli [7]) of the same compound?
Answer: > 128 µg/mL

Question: What about the Activity (Escherichia coli [8]) of the same compound?
Answer: 90%

Question: And the inhibition at 24 h, 1000 ug/ml [9]?
Answer: 20%

Question: What about the MIC (Proteus mirabilis [10]) of the same compound?
Answer: > 16 µg/mL

Question: What about the Activity (Erythrocyte) of the same compound?
Answer: Non-Toxic

Question: What about the MIC (Citrobacter freundii [11]) of the same compound?
Answer: 4 µg/mL

Question: What about the MIC (Citrobacter freundii [12]) of the same compound?
Answer: 0.5 µg/mL

Question: For `CC(C)(C)CC(C)(C)c1ccc(OCCOCCOCCOCCOCCOCCOCCO)cc1`, which Activity (HeLa [13]) is on record?
Answer: Active

Question: What does the source list for `O=C(O)CN1CCN(CC(=O)O)CCN(CC(=O)O)CC1`?
Answer: MIC [14]: < 0.03 µg/mL; IC50 (Beta-lactamase NDM-1 [15]): 110 nM; Ki (Beta-lactamase NDM-1 [16]): 5110 nM; MIC (Proteus mirabilis [5]): 0.5 µg/mL; MIC (Proteus mirabilis [17]): 0.5 µg/mL; MIC [18]: 0.125 µg/mL (≈ 0.412 µM); MIC [19]: 1 µg/mL (≈ 3.3 µM); MIC (Escherichia coli [7]): > 128 µg/mL; MIC [20]: 0.125 µg/mL (≈ 0.412 µM); Activity (Escherichia coli [8]): 90%; Activity [21]: 10000 to 1e+06 CFU/mL; MIC (Proteus mirabilis [10]): 2 µg/mL; MIC [22]: 2 µg/mL (≈ 6.59 µM); MIC (Citrobacter freundii [11]): 0.06 µg/mL

Question: With `O=C(O)CN(CCN(CC(=O)O)CC(=O)O)CC(=O)O` as the compound, how does the IZ [23] read?
Answer: 21.7 mm
